Data: patent publication US6472348B1, “Pyridone derivatives and herbicides” (Kumiai Chemical Industry Co., Ltd., priority 1996, dated 2002)

Assays:
Assay type in all cases: in vivo
Set-up in all cases: scale not given here
slender amaranth (Am) [1] = experiment: Test Example 3: herbicidal effects by upland field foliage treatment
How it was run: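 Post-emergence upland foliage test. Seedlings grown 2 weeks under glass in pots (120 cm^2) of sand, seed topped with soil; treated on the foliage, kept in greenhouse, then assessed at day 14 using rating standards.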

green foxtail (Se) = experiment: Test Example 6: crop plant selectivity by upland field soil treatment (soybean), herbicidal effects; conditions: 21st day after application
How it was run: (§1)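 Scoring took place 21 days after treatment using a set grading standard, covering both weed control and soybean injury. Seeds of soybean and weed species went into sand-filled pots under a soil cover before soil treatment and greenhouse culture.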

pale smartweed (Po) [2] = experiment: as above; conditions: 21st day after application
How it was run: as §1

China jute (Ab) [3] = experiment: as above; conditions: 21st day after application
How it was run: as §1

slender amaranth (Am) [4] = experiment: as above; conditions: 21st day after application
How it was run: as §1

[5] = tested on: common lambsquarters (Ch); experiment: as above; conditions: 21st day after application
How it was run: as §1

pale smartweed (Po) [6] = experiment: Test Example 7: crop plant selectivity by upland field soil treatment (corn), herbicidal effects; conditions: 21st day after application
How it was run: (§2)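 Greenhouse pot test: scores for herbicidal effect and corn phytotoxicity were given 21 days after soil treatment, against set rating standards. Crop and weed species (foxtail, smartweed, amaranth, lambsquarters, China jute) were sown together in sand and covered with soil beforehand.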

China jute (Ab) [7] = experiment: as above; conditions: 21st day after application
How it was run: as §2

slender amaranth (Am) [8] = experiment: as above; conditions: 21st day after application
How it was run: as §2

[9] = tested on: common lambsquarters (Ch); experiment: as above; conditions: 21st day after application
How it was run: as §2

[10] = 100 g of the active ingredient per 10 ares, evaluated on the 14th day after treatment
[11] = 100 g active ingredient per 10 ares, evaluated 14th day after treatment

Compound | Herbicidal effects Am (slender amaranth (Am) [1]; [10]) | Herbicidal effects Se (green foxtail (Se); dose 1.6 g ai/10a) | Herbicidal effects Se (green foxtail (Se); dose 6.3 g ai/10a) | Herbicidal effects Po (pale smartweed (Po) [2]; dose 1.6 g ai/10a) | Herbicidal effects Po (pale smartweed (Po) [2]; dose 6.3 g ai/10a) | Herbicidal effects Ab (China jute (Ab) [3]; dose 1.6 g ai/10a) | Herbicidal effects Ab (China jute (Ab) [3]; dose 6.3 g ai/10a) | Herbicidal effects Am (slender amaranth (Am) [4]; dose 1.6 g ai/10a) | Herbicidal effects Am (slender amaranth (Am) [4]; dose 6.3 g ai/10a) | Herbicidal effects Ch ([5]; dose 1.6 g ai/10a) | Herbicidal effects Ch ([5]; dose 6.3 g ai/10a) | Herbicidal effects Po (pale smartweed (Po) [6]; dose 1.6 g ai/10a) | Herbicidal effects Ab (China jute (Ab) [7]; dose 1.6 g ai/10a) | Herbicidal effects Am (slender amaranth (Am) [8]; dose 1.6 g ai/10a) | Herbicidal effects Ch ([9]; dose 1.6 g ai/10a) | Herbicidal effects Po (pale smartweed (Po) [6]; dose 6.3 g ai/10a) | Herbicidal effects Ab (China jute (Ab) [7]; dose 6.3 g ai/10a) | Herbicidal effects Am (slender amaranth (Am) [8]; dose 6.3 g ai/10a) | Herbicidal effects Ch ([9]; dose 6.3 g ai/10a) | Herbicidal effects Am (slender amaranth (Am) [1]; [11])
Cn1c(C(F)(F)F)ccc(-c2cc(Cl)c(Cl)cc2F)c1=O [1-136] | 5 | 5 | 5 | 5 | 5 | 4 | 5 | 5 | 5 | 5 | 5 | 5 | 5 | 5 | 5 | – | – | – | – | –
Cn1c(C(F)(F)F)ccc(-c2cc(OCC(F)(F)F)c(Cl)cc2F)c1=O [1-155] | 5 | 5 | 5 | 5 | 5 | 5 | 5 | 5 | 5 | 5 | 5 | 5 | 5 | 5 | 5 | 5 | 5 | 5 | 5 | –
Cn1c(C(F)(F)F)ccc(-c2cc(OCC3CC3)c(Cl)cc2F)c1=O [1-160] | 5 | – | 5 | – | 5 | – | 5 | – | 5 | – | 5 | – | – | – | – | 5 | 5 | 5 | 5 | –
Cn1c(C(F)(F)F)ccc(-c2cc(OCCCl)c(Cl)cc2F)c1=O [1-171] | 5 | – | 5 | – | 5 | – | 5 | – | 5 | – | 5 | – | – | – | – | 5 | 5 | 5 | 5 | –
C#CC(C)Oc1cc(Cl)cc(F)c1-c1ccc(C(F)(F)F)n(C)c1=O (centres unmarked) [1′-5] | – | 4 | 5 | 5 | 5 | 5 | 5 | 5 | 5 | 5 | 5 | 5 | 5 | 5 | 5 | 5 | 5 | 5 | 5 | 5
C=CC(C)Oc1cc(-c2ccc(C(F)(F)F)n(C)c2=O)c(F)cc1Cl (centres unmarked) [Compound 1-182] | 5 | – | 5 | – | 5 | – | 5 | – | 5 | – | 5 | – | – | – | – | 5 | 5 | 5 | 5 | –
CCON=Cc1cc(-c2ccc(C(F)(F)F)n(C)c2=O)c(F)cc1Cl [Compound 1-187] | – | – | 5 | – | 5 | – | 5 | – | 5 | – | 5 | – | – | – | – | 5 | 5 | 5 | 5 | 5
CCOC(=O)CON=Cc1cc(-c2ccc(C(F)(F)F)n(C)c2=O)c(F)cc1Cl [Compound 1-191] | – | – | 5 | – | 5 | – | 5 | – | 5 | – | 5 | – | – | – | – | 5 | 5 | 5 | 5 | 5
C=CC(O)c1cc(-c2ccc(C(F)(F)F)n(C)c2=O)c(F)cc1Cl (centres unmarked) [Compound 1-197] | – | – | 5 | – | 5 | – | 5 | – | 5 | – | 5 | – | – | – | – | 5 | 5 | 5 | 5 | 5
C#CC(O)c1cc(-c2ccc(C(F)(F)F)n(C)c2=O)c(F)cc1Cl (centres unmarked) [Compound 1-202] | – | 5 | – | 5 | – | 5 | – | 5 | – | 5 | – | 5 | 5 | 5 | 5 | – | – | – | – | 5
CSCOc1cc(-c2ccc(C(F)(F)F)n(C)c2=O)c(F)cc1Cl [Compound 1-208] | – | – | 5 | – | 4 | – | 5 | – | 5 | – | 5 | – | – | – | – | 4 | 5 | 5 | 5 | 5
C#CCN1C(=O)COc2cc(Cl)c(-c3ccc(C(F)(F)F)n(C)c3=O)cc21 [Compound 2-25] | – | 5 | 5 | 5 | 5 | 5 | 5 | 5 | 5 | 5 | 5 | 5 | 5 | 5 | 5 | – | – | – | – | 5
C=CCN1C(=O)COc2cc(Cl)c(-c3ccc(C(F)(F)F)n(C)c3=O)cc21 [Compound 2-26] | – | – | 5 | – | 5 | – | 5 | – | 5 | – | 5 | – | – | – | – | 5 | 5 | 5 | 5 | 5
Cc1cc2c(-c3ccc(C(F)(F)F)n(C)c3=O)c(F)cc(Cl)c2o1 [Compound 4-1] | – | 5 | 5 | 5 | 5 | 5 | 5 | 5 | 5 | 5 | 5 | 5 | 5 | 5 | 5 | 5 | 5 | 5 | 5 | 5
CCc1cc2c(-c3ccc(C(F)(F)F)n(C)c3=O)c(F)cc(Cl)c2o1 [Compound 4-2] | – | 5 | – | 5 | – | 5 | – | 5 | – | 5 | – | 5 | 5 | 5 | 5 | 5 | 5 | 5 | 5 | 5
CCCc1cc2c(-c3ccc(C(F)(F)F)n(C)c3=O)c(F)cc(Cl)c2o1 [Compound 4-3] | – | – | 5 | – | 5 | – | 5 | – | 5 | – | 5 | – | – | – | – | 5 | 5 | 5 | 5 | 5
CCc1cc2c(Cl)cc(F)c(-c3ccc(C(F)(F)F)n(C)c3=O)c2o1 [Compound 5-2] | – | – | 5 | – | 5 | – | 5 | – | 5 | – | 5 | – | – | – | – | 5 | 5 | 5 | 5 | 5
CON=Cc1cc(-c2ccc(C(F)(F)F)n(C)c2=O)c(F)cc1Cl [Compound No. 1-72, 5-(1-methyl-6-trifluoromethyl-2(1H)-pyridon-3-yl)-2-chloro-4-fluorobenzaldehydeoxime-O-methyl ether] | 5 | 5 | 5 | 5 | 5 | 5 | 5 | 5 | 5 | 5 | 5 | 5 | 5 | 5 | 5 | – | – | – | – | –
Cn1c(C(F)(F)F)ccc(-c2cc(C#N)c(Cl)cc2F)c1=O [Compound No. 1-119, 3-(4-chloro-5-cyano-2-fluorophenyl)-1-methyl-6-trifluoromethyl-2(1H)-pyridone] | 5 | – | 5 | – | 5 | – | 5 | – | 5 | – | 5 | – | – | – | – | 5 | 5 | 5 | 5 | –
CCCC(=O)c1cc(-c2ccc(C(F)(F)F)n(C)c2=O)c(F)cc1Cl [Compound No. 1-194, 3-[4-chloro-2-fluoro-5-(1-oxobutyl)phenyl]-1-methyl-6-trifluoromethyl-2(1H)-pyridone] | – | – | 5 | – | 5 | – | 5 | – | 5 | – | 5 | – | – | – | – | 5 | 5 | 5 | 5 | 5
C#CCn1c(=O)sc2cc(F)c(-c3ccc(C(F)(F)F)n(C)c3=O)cc21 [Compound No. 3-1, 3-[6-fluoro-3-(2-propynyl)-benzothiazolin-2-on-5-yl]-1-methyl-6-trifluoromethyl-2(1H)-pyridone] | – | – | 5 | – | 5 | – | 5 | – | 5 | – | 5 | 5 | 5 | 5 | 5 | 5 | 5 | 5 | 5 | 5
